In one experiment the test system is MGC-803. As to the kind of experiment: Antiproliferative activity against human MGC-803 cells assessed as reduction in cell viability incubated for 48 hrs by MTT assay. In kind it is functional, cell-based. The settings on record: Homo sapiens, MGC-803, 48 h. A general note: Formazan colour is commonly taken as a measure of viable cells.
For a further experiment, the system named is HCT-116. As to the kind of experiment: cells. The note with it: Homo sapiens, HCT-116, 48 h.
A further experiment has as its system KYSE-450. As to the kind of experiment: Antiproliferative activity against human KYSE-450 cells assessed as reduction in cell viability incubated for 48 hrs by MTT assay. In kind it is functional, cell-based. The settings on record: KYSE-450, 48 h.

The record followed here is ChEMBL document CHEMBL5137024, “Discovery of novel coumarin-indole derivatives as tubulin polymerization inhibitors with potent anti-gastric cancer activities” (Eur J Med Chem, 2022).

For orientation: IC50 means the concentration that inhibits the measured activity by half.

Turning to `O=Cc1ccc2c(ccn2-c2cc(=O)oc3ccccc23)c1`, the IC50 in the experiment on MGC-803 was 18100 nM; in the experiment on HCT-116 it was 11400 nM; with KYSE-450 it was 10700 nM.

As to `O=c1cc(Nc2ccc3cc[nH]c3c2)c2ccccc2o1`, the half-inhibitory concentration (IC50) with MGC-803 is 20 nM; in the experiment on HCT-116, 7490 nM; with KYSE-450, > 20000 nM.

Take `CC(C)(C)OC(=O)n1c(-c2cc(=O)oc3ccccc23)cc2ccccc21`: the concentration for half-maximal inhibition (IC50) in the experiment with MGC-803 was 1180 nM; in the experiment with HCT-116 it was 3380 nM; with KYSE-450, 2180 nM.

For `COc1ccc2c(c1)c(C=O)cn2-c1cc(=O)oc2ccccc12`, the IC50 in the experiment on MGC-803, with HCT-116 and with KYSE-450 was > 20000 nM each time.

Regarding `O=c1cc(-n2ccc3cc(O)ccc32)c2ccccc2o1`, the IC50 came to 12900 nM in the experiment with MGC-803, 11900 nM in the experiment on HCT-116 and 17900 nM in the experiment with KYSE-450.

Take `COc1ccc2c(ccn2-c2cc(=O)oc3ccccc23)c1`: the figures for the IC50 with MGC-803, in the experiment on HCT-116 and in the experiment with KYSE-450 were 8140 nM, 17400 nM and 16100 nM, respectively.

`COc1ccc2[nH]cc(C(=O)c3cc(=O)oc4ccccc34)c2c1`: the IC50 in the experiment on MGC-803, in the experiment with HCT-116 and with KYSE-450 was > 20000 nM in each case.

In the case of `CC(C)(C)OC(=O)n1cc(-c2cc(=O)oc3ccccc23)c2ccccc21`, the results for the IC50 in the experiment with MGC-803, in the experiment on HCT-116 and with KYSE-450 were 180 nM, 180 nM and 210 nM, respectively.

Turning to `O=c1cc(Nc2ccc3c(ccn3Cc3ccccc3)c2)c2ccccc2o1`, the half-inhibitory concentration (IC50) in the experiment with MGC-803 is 210 nM; in the experiment with HCT-116, 6250 nM; with KYSE-450, > 20000 nM.

`CCn1ccc2cc(-c3cc(=O)oc4ccccc34)ccc21`: the concentration for half-maximal inhibition (IC50) in the experiment with MGC-803 was 1210 nM; in the experiment on HCT-116, 980 nM; in the experiment with KYSE-450, 840 nM.

Turning to `CN(c1ccc2ccn(C)c2c1)c1cc(=O)oc2ccccc12`, the values for the IC50 with MGC-803, with HCT-116 and in the experiment with KYSE-450 were 168 nM, 514 nM and 472 nM, respectively.

For `O=c1cc(-c2cc3ccccc3[nH]2)c2ccccc2o1`, the IC50 came to 650 nM in the experiment with MGC-803, 480 nM in the experiment with HCT-116 and 710 nM in the experiment with KYSE-450.

With `CCN(c1ccc2c(ccn2C)c1)c1cc(=O)oc2ccccc12`, the half-maximal inhibitory concentration (IC50) with MGC-803 amounted to 87 nM; with HCT-116, 102 nM; with KYSE-450 it was 128 nM.

As for `CN(c1ccc2[nH]ccc2c1)c1cc(=O)oc2ccccc12`, the values for the IC50 in the experiment on MGC-803, in the experiment with HCT-116 and in the experiment on KYSE-450 were 14 nM, 50 nM and 69 nM, respectively.

Consider `O=c1cc(Nc2ccc3[nH]ccc3c2)c2ccccc2o1`, for which the half-inhibitory concentration (IC50) is 260 nM in the experiment with MGC-803, 2660 nM in the experiment on HCT-116 and 589 nM with KYSE-450.

On to `Cn1ccc2cc(Nc3cc(=O)oc4ccccc34)ccc21`, for which the figures for the IC50 in the experiment on MGC-803, with HCT-116 and in the experiment on KYSE-450 were 110 nM, 270 nM and 310 nM, respectively.

Take `O=C(c1c[nH]c2ccccc12)c1cc(=O)oc2ccccc12`: the concentration for half-maximal inhibition (IC50) with MGC-803, with HCT-116 and with KYSE-450 was > 20000 nM in each case.

Consider `Cn1ccc2ccc(Nc3cc(=O)oc4ccccc34)cc21`, for which the figures for the IC50 in the experiment with MGC-803, with HCT-116 and with KYSE-450 were 1580 nM, 2160 nM and 5460 nM, respectively.

Turning to `Cc1ccc2[nH]cc(C(=O)c3cc(=O)oc4ccccc34)c2c1`, the IC50 in the experiment with MGC-803, in the experiment on HCT-116 and in the experiment with KYSE-450 was > 20000 nM in each case.

Turning to `CCn1ccc2cc(Nc3cc(=O)oc4ccccc34)ccc21`, the values for the IC50 in the experiment with MGC-803, in the experiment with HCT-116 and in the experiment with KYSE-450 were 6040 nM, 3050 nM and > 20000 nM, respectively.

Turning to `CCn1ccc2cc(N(C)c3cc(=O)oc4ccccc34)ccc21`, the IC50 with MGC-803 came out at 13 nM; with HCT-116, 27 nM; in the experiment on KYSE-450, 58 nM.

Take `O=c1cc(-c2ccc3[nH]ccc3c2)c2ccccc2o1`: the concentration for half-maximal inhibition (IC50) in the experiment with MGC-803 was found to be 1560 nM; with HCT-116, 240 nM; in the experiment with KYSE-450, 2100 nM.

`O=c1cc(-n2ccc3ccccc32)c2ccccc2o1`: the IC50 in the experiment on MGC-803, in the experiment on HCT-116 and in the experiment on KYSE-450 was > 20000 nM throughout.

Regarding `O=c1cc(-n2ccc3cc([N+](=O)[O-])ccc32)c2ccccc2o1`, the concentration for half-maximal inhibition (IC50) in the experiment with MGC-803, with HCT-116 and in the experiment with KYSE-450 was > 20000 nM in each case.

For the compound `COc1cc2c(c(OC)c1OC)-c1ccc(OC)c(=O)cc1[C@@H](NC(C)=O)CC2` [COLCHICINE], the IC50 is 108 nM with HCT-116 and 122 nM with KYSE-450.
